Counter-ions that a name gives are not always drawn. Like-named read-outs stand apart in the source and are kept apart here.
Assays:
Assay in all cases: AK assay 384-well format, Prestwick library screening
P. aeruginosa = type: cell-based, Pseudomonas aeruginosa; conditions: 50 μM final drug concentration; for fold induction at 50 µM: Pseudomonas aeruginosa, 3 h
E. cloacae = type: cell-based, Enterobacter cloacae; conditions: 50 μM final drug concentration; for fold induction at 50 µM: Enterobacter cloacae, 3 h
K. pneumoniae = type: cell-based, Klebsiella pneumoniae; conditions: 50 μM final drug concentration; for fold induction at 50 µM: Klebsiella pneumoniae, 3 h
E. faecium = type: cell-based, Enterococcus faecium; conditions: 50 μM final drug concentration; for fold induction at 50 µM: Enterococcus faecium, 3 h
E. coli = type: cell-based, Escherichia coli; conditions: 50 μM final drug concentration; for fold induction at 50 µM: Escherichia coli, 3 h
[1] = system: A. baumannii strain 98-37-09; type: cell-based, Acinetobacter baumannii; conditions: 50 μM final drug concentration; for fold induction at 50 µM: Acinetobacter baumannii, 983709, 3 h
[2] = system: S. aureus strain USA300-0114; type: cell-based, Staphylococcus aureus; conditions: 50 μM final drug concentration; for fold induction at 50 µM: Staphylococcus aureus, USA300, 3 h
[3] = planktonic, cutoff for positive-scoring molecules 3-fold increase, read-out: AK-based Prestwick Library Screening Results, P. aeruginosa (fold increase in extracellular AK activity)
[4] = planktonic, cutoff for positive-scoring molecules 3-fold increase, read-out: AK-based Prestwick Library Screening Results, E. cloacae (fold increase in extracellular AK activity)
[5] = planktonic, cutoff for positive-scoring molecules 3-fold increase, read-out: AK-based Prestwick Library Screening Results, K. pneumoniae (fold increase in extracellular AK activity)
[6] = planktonic, cutoff for positive-scoring molecules 3-fold increase, read-out: AK-based Prestwick Library Screening Results, E. faecium (fold increase in extracellular AK activity)
[7] = planktonic, cutoff for positive-scoring molecules 3-fold increase, read-out: AK-based Prestwick Library Screening Results, E. coli (fold increase in extracellular AK activity)
[8] = planktonic, cutoff for positive-scoring molecules 3-fold increase, read-out: AK-based Prestwick Library Screening Results, A. baumannii (fold increase in extracellular AK activity)
[9] = planktonic, cutoff for positive-scoring molecules 3-fold increase, read-out: AK-based Prestwick Library Screening Results, S. aureus (fold increase in extracellular AK activity)
[10] = planktonic P. aeruginosa, positive cutoff 3-fold increase, read-out: AK-based Prestwick library screening result, P. aeruginosa (fold increase in extracellular AK activity)
[11] = planktonic E. cloacae, positive cutoff 3-fold increase, read-out: AK-based Prestwick library screening result, E. cloacae (fold increase in extracellular AK activity)
[12] = planktonic K. pneumoniae, positive cutoff 3-fold increase, read-out: AK-based Prestwick library screening result, K. pneumoniae (fold increase in extracellular AK activity)
[13] = planktonic E. faecium, positive cutoff 3-fold increase, read-out: AK-based Prestwick library screening result, E. faecium (fold increase in extracellular AK activity)
[14] = planktonic E. coli, positive cutoff 3-fold increase, read-out: AK-based Prestwick library screening result, E. coli (fold increase in extracellular AK activity)
[15] = planktonic A. baumannii, positive cutoff 3-fold increase, read-out: AK-based Prestwick library screening result, A. baumannii (fold increase in extracellular AK activity)
[16] = planktonic S. aureus, positive cutoff 3-fold increase, read-out: AK-based Prestwick library screening result, S. aureus (fold increase in extracellular AK activity)
[17] = 384-well format, cutoff for positive-scoring molecules 3-fold increase
[18] = 384-well format, cutoff for positive-scoring molecules 3-fold increase, read-out: AK-based Prestwick Library Screening Results, P. aeruginosa (increase in extracellular AK activity)
[19] = 384-well format, cutoff for positive-scoring molecules 3-fold increase, read-out: AK-based Prestwick Library Screening Results, E. cloacae (increase in extracellular AK activity)
[20] = 384-well format, cutoff for positive-scoring molecules 3-fold increase, read-out: AK-based Prestwick Library Screening Results, K. pneumoniae (increase in extracellular AK activity)
[21] = 384-well format, cutoff for positive-scoring molecules 3-fold increase, read-out: AK-based Prestwick Library Screening Results, E. faecium (increase in extracellular AK activity)
[22] = 384-well format, cutoff for positive-scoring molecules 3-fold increase, read-out: AK-based Prestwick Library Screening Results, E. coli (increase in extracellular AK activity)
[23] = 384-well format, cutoff for positive-scoring molecules 3-fold increase, read-out: AK-based Prestwick Library Screening Results, A. baumannii (increase in extracellular AK activity)
[24] = 384-well format, cutoff for positive-scoring molecules 3-fold increase, read-out: AK-based Prestwick Library Screening Results, S. aureus (increase in extracellular AK activity)

## NS(=O)(=O)c1cc2c(cc1Cl)NC(C(Cl)Cl)NS2(=O)=O (stereo not shown) [Trichlormethiazide]
P. aeruginosa; [3]
  fold induction at 50 µM: 0.8
E. cloacae; [4]
  fold induction at 50 µM: 1.2
K. pneumoniae; [5]
  fold induction at 50 µM: 0.8
E. faecium; [6]
  fold induction at 50 µM: 1.4
E. coli; [7]
  fold induction at 50 µM: 0.8
[1]; [8]
  fold induction at 50 µM: 1
[2]; [9]
  fold induction at 50 µM: 1.3

## COc1cc2c(c(OC)c1OC)-c1ccc(O)c(=O)cc1C(N)CC2 (stereo not shown) [Trimethylcolchicinic acid]
P. aeruginosa; planktonic P. aeruginosa, […], read-out: AK-based Prestwick Library Screening Results, P. aeruginosa (increase in extracellular AK activity)
  fold induction at 50 µM: 0.7
E. cloacae; planktonic E. cloacae, […], read-out: AK-based Prestwick Library Screening Results, E. cloacae (increase in extracellular AK activity)
  fold induction at 50 µM: 0.8
K. pneumoniae; planktonic K. pneumoniae, […], read-out: AK-based Prestwick Library Screening Results, K. pneumoniae (increase in extracellular AK activity)
  fold induction at 50 µM: 0.7
E. faecium; planktonic E. faecium, […], read-out: AK-based Prestwick Library Screening Results, E. faecium (increase in extracellular AK activity)
  fold induction at 50 µM: 1.2
E. coli; planktonic E. coli, […], read-out: AK-based Prestwick Library Screening Results, E. coli (increase in extracellular AK activity)
  fold induction at 50 µM: 0.8
[1]; planktonic A. baumannii, […], read-out: AK-based Prestwick Library Screening Results, A. baumannii (increase in extracellular AK activity)
  fold induction at 50 µM: 1
[2]; planktonic S. aureus, […], read-out: AK-based Prestwick Library Screening Results, S. aureus (increase in extracellular AK activity)
  fold induction at 50 µM: 0.6

## C=CCOc1ccccc1OCC(O)CNC(C)C (stereo not shown) [Oxprenolol hydrochloride]
P. aeruginosa; [10]
  fold induction at 50 µM: 0.6
E. cloacae; [11]
  fold induction at 50 µM: 0.9
K. pneumoniae; [12]
  fold induction at 50 µM: 0.6
E. faecium; [13]
  fold induction at 50 µM: 0.9
E. coli; [14]
  fold induction at 50 µM: 0.7
[1]; [15]
  fold induction at 50 µM: 0.6
[2]; [16]
  fold induction at 50 µM: 0.6

## CCCNCC(O)COc1ccccc1C(=O)CCc1ccccc1 (stereo not shown) [Propafenone hydrochloride]
P. aeruginosa; planktonic P. aeruginosa, cutoff for positive-scoring molecules 3-fold increase, read-out: AK-based Prestwick Library Screening Results, P. aeruginosa (increase in extracellular AK activity)
  fold induction at 50 µM: 0.7
E. cloacae; planktonic E. cloacae, cutoff for positive-scoring molecules 3-fold increase, read-out: AK-based Prestwick Library Screening Results, E. cloacae (increase in extracellular AK activity)
  fold induction at 50 µM: 0.8
K. pneumoniae; planktonic K. pneumoniae, cutoff for positive-scoring molecules 3-fold increase, read-out: AK-based Prestwick Library Screening Results, K. pneumoniae (increase in extracellular AK activity)
  fold induction at 50 µM: 0.6
E. faecium; planktonic E. faecium, cutoff for positive-scoring molecules 3-fold increase, read-out: AK-based Prestwick Library Screening Results, E. faecium (increase in extracellular AK activity)
  fold induction at 50 µM: 1
E. coli; planktonic E. coli, cutoff for positive-scoring molecules 3-fold increase, read-out: AK-based Prestwick Library Screening Results, E. coli (increase in extracellular AK activity)
  fold induction at 50 µM: 1
[1]; planktonic A. baumannii, cutoff for positive-scoring molecules 3-fold increase, read-out: AK-based Prestwick Library Screening Results, A. baumannii (increase in extracellular AK activity)
  fold induction at 50 µM: 0.7
[2]; planktonic S. aureus, cutoff for positive-scoring molecules 3-fold increase, read-out: AK-based Prestwick Library Screening Results, S. aureus (increase in extracellular AK activity)
  fold induction at 50 µM: 0.7

## CC[C@@]1(O)C(=O)OCc2c1cc1n(c2=O)Cc2cc3ccccc3nc2-1 [Camptothecine (S,+)]
P. aeruginosa; [17]
  AK-based Prestwick Library Screening Results, P. aeruginosa (increase in extracellular AK activity): 0.8
E. cloacae; [17]
  AK-based Prestwick Library Screening Results, E. cloacae (increase in extracellular AK activity): 1.1
K. pneumoniae; [17]
  AK-based Prestwick Library Screening Results, K. pneumoniae (increase in extracellular AK activity): 0.8
E. faecium; [17]
  AK-based Prestwick Library Screening Results, E. faecium (increase in extracellular AK activity): 0.9
E. coli; [17]
  AK-based Prestwick Library Screening Results, E. coli (increase in extracellular AK activity): 0.9
[1]; [17]
  AK-based Prestwick Library Screening Results, A. baumannii (increase in extracellular AK activity): 0.8
[2]; [17]
  AK-based Prestwick Library Screening Results, S. aureus (increase in extracellular AK activity): 0.7

## O=C(NCCO[N+](=O)[O-])c1cccnc1 [Nicorandil]
P. aeruginosa; [18]
  fold induction at 50 µM: 0.7
E. cloacae; [19]
  fold induction at 50 µM: 0.9
K. pneumoniae; [20]
  fold induction at 50 µM: 0.8
E. faecium; [21]
  fold induction at 50 µM: 0.9
E. coli; [22]
  fold induction at 50 µM: 0.9
[1]; [23]
  fold induction at 50 µM: 0.8
[2]; [24]
  fold induction at 50 µM: 0.6

## CO[C@H]1/C=C/O[C@@]2(C)Oc3c(C)c(O)c4c(c3C2=O)C2=NC3(CCN(CC(C)C)CC3)NC2=C(NC(=O)/C(C)=C\C=C\[C@H](C)[C@H](O)[C@@H](C)[C@@H](O)[C@@H](C)[C@H](OC(C)=O)[C@@H]1C)C4=O [Rifabutin]
P. aeruginosa; [10]
  fold induction at 50 µM: 0.6
E. cloacae; [11]
  fold induction at 50 µM: 1.6
K. pneumoniae; [12]
  fold induction at 50 µM: 1.3
E. faecium; [13]
  fold induction at 50 µM: 1.2
E. coli; [14]
  fold induction at 50 µM: 1.3
[1]; [15]
  fold induction at 50 µM: 3.3
[2]; [16]
  fold induction at 50 µM: 0.7

## CC[C@@H](C(=O)[C@@H](C)[C@@H](O)[C@H](C)CCc1ccc(C)c(O)c1C(=O)O)[C@H]1O[C@](CC)([C@H]2CC[C@](O)(CC)[C@H](C)O2)C[C@@H]1C [Lasalocid sodium salt]
P. aeruginosa; [3]
  fold induction at 50 µM: 0.7
E. cloacae; [4]
  fold induction at 50 µM: 1
K. pneumoniae; [5]
  fold induction at 50 µM: 0.7
E. faecium; [6]
  fold induction at 50 µM: 0.9
E. coli; [7]
  fold induction at 50 µM: 1
[1]; [8]
  fold induction at 50 µM: 2.6
[2]; [9]
  fold induction at 50 µM: 3.7

## c1ccc(CN(CC2=NCCN2)c2ccccc2)cc1 [Antazoline hydrochloride]
P. aeruginosa; [18]
  fold induction at 50 µM: 0.7
E. cloacae; [19]
  fold induction at 50 µM: 0.8
K. pneumoniae; [20]
  fold induction at 50 µM: 0.6
E. faecium; [21]
  fold induction at 50 µM: 1
E. coli; [22]
  fold induction at 50 µM: 0.7
[1]; [23]
  fold induction at 50 µM: 0.8
[2]; [24]
  fold induction at 50 µM: 0.8

## NCCc1c[nH]c2ccc(O)cc12 [Serotonin hydrochloride]
P. aeruginosa; planktonic P. aeruginosa, 384-well, […], read-out: AK-based Prestwick Library Screening Results: P. aeruginosa (increase in extracellular AK activity)
  fold induction at 50 µM: 0.6
E. cloacae; planktonic E. cloacae, 384-well, […], read-out: AK-based Prestwick Library Screening Results: E. cloacae (increase in extracellular AK activity)
  fold induction at 50 µM: 0.6
K. pneumoniae; planktonic K. pneumoniae, 384-well, […], read-out: AK-based Prestwick Library Screening Results: K. pneumoniae (increase in extracellular AK activity)
  fold induction at 50 µM: 0.6
E. faecium; planktonic E. faecium, 384-well, […], read-out: AK-based Prestwick Library Screening Results: E. faecium (increase in extracellular AK activity)
  fold induction at 50 µM: 0.9
E. coli; planktonic E. coli, 384-well, cutoff for positive-scoring molecules 3-fold increase, read-out: AK-based Prestwick Library Screening Results: E. coli (increase in extracellular AK activity)
  fold induction at 50 µM: 0.8
[1]; planktonic A. baumannii, 384-well, […], read-out: AK-based Prestwick Library Screening Results: A. baumannii (increase in extracellular AK activity)
  fold induction at 50 µM: 0.6
[2]; planktonic S. aureus, 384-well, […], read-out: AK-based Prestwick Library Screening Results: S. aureus (increase in extracellular AK activity)
  fold induction at 50 µM: 0.6

Source: patent publication US10004701B2, “Methods and compositions for treating infection” (UNIVERSITY OF ROCHESTER, priority 2012, dated 2018)
